US8952024B2, “Herbicidal pyrimidone derivatives” (E I du Pont de Nemours and Company, priority 2009, dated 2015)
Like-named read-outs stand apart in the source and are kept apart here.

Tests used:
Type in all cases: in vivo
[1] = test system: windgrass (Apera spica-venti); assay: Test B postemergence plant response
Method in brief: (§1)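 Visual ratings from 0 (no effect) to 100 (complete control), made against controls 13–15 days after treatment, kept in a greenhouse. Compounds were applied postemergence to potted plants at the 1- to 4-leaf stage (2–18 cm).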

[2] = test system: canarygrass (Phalaris minor); assay: Test B postemergence plant response
Method in brief: as §1

[3] = test system: chickweed (Stellaria media); assay: Test B postemergence plant response
Method in brief: as §1

[4] = test system: winter barley (Hordeum vulgare); assay: Test B postemergence plant response
Method in brief: as §1

[5] = test system: sunflower (common oilseed sunflower, Helianthus annuus); assay: Test B pre-/postemergence plant response; settings: Preemergence
Method in brief: (§2)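 Each species received compound formulated in non-phytotoxic solvent with surfactant, either at planting into a loam and sand blend or as a foliar spray once plants reached 2 to 18 cm in peat-based medium. Plants stayed in the greenhouse 13 to 15 days before visual evaluation against controls, scored 0 (no effect) to 100 (complete control).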

[6] = test system: morningglory (Ipomoea coccinea); assay: Test B pre-/postemergence plant response
Method in brief: as §2

[7] = test system: bermudagrass (Cynodon dactylon); assay: Test B pre-/postemergence plant response; settings: for pest or weed control at 31 g/ha: 31 g ai/ha; for pest or weed control at 125 g/ha: 125 g ai/ha
Method in brief: as §2

[8] = test system: galium (catchweed bedstraw, Galium aparine); assay: Test B pre-/postemergence plant response; settings: Preemergence
Method in brief: as §2

[9] = test system: nightshade (eastern black nightshade, Solanum ptycanthum); assay: Test B pre-/postemergence plant response; settings: Preemergence
Method in brief: as §2

[10] = test system: barnyardgrass (Echinochloa crus-galli); assay: Test B flooded paddy test; settings: Echinochloa crus-galli, 360 h
Method in brief: (§3)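 Each compound is added to standing floodwater (3 cm above soil, maintained) in pots of 2-leaf-stage plants; greenhouse exposure lasts 13–15 d before visual comparison with controls on a 0–100 control scale.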

rice (Oryza sativa) = assay: Test B flooded paddy test; settings: Oryza sativa
Method in brief: as §3

[11] = test system: ducksalad (Heteranthera limosa); assay: Test B flooded paddy test; settings: Heteranthera limosa, 360 h
Method in brief: as §3

[12] = test system: umbrella sedge (Cyperus difformis); assay: Test B flooded paddy test; settings: Cyperus difformis, 360 h
Method in brief: as §3

[13] = 62 g ai/ha, postemergence, 0 is no effect, 100 is complete control, 13 to 15 days
[14] = 31 g ai/ha, scale 0 to 100 (0 no effect, 100 complete control)
[15] = 62 g ai/ha, scale 0 to 100, 0 no effect, 100 complete control
[16] = 125 g ai/ha, scale 0 to 100, 0 no effect, 100 complete control

O=C1CCCC(O)=C1C(=O)c1cnc(-c2cccnc2)n(-c2ccccc2)c1=O [Compound 113, 5-[(2-hydroxy-6-oxo-1-cyclohexen-1-yl)carbonyl]-3-phenyl-2-(3-pyridinyl)-4(3H)-pyrimidone]
Windgrass plant response rating (0 to 100 scale) [1, 13]: 30 | pest or weed control at 125 g/ha ([1]; Apera spica-venti, post-emergence, 360 h, Postemergence, 125 g ai/ha, scale 0 to 100 (0 no effect, 100 complete control), read-out: Plant response rating, Windgrass): 35% | Canarygrass plant response rating (0 to 100 scale) [2, 13]: 90 | pest or weed control at 31 g/ha ([2]; Phalaris minor, post-emergence, 360 h, 31 g ai/ha, postemergence, scale 0 to 100, 0 is no effect, 100 is complete control, read-out: Plant response rating, Canarygrass): 65% | pest or weed control at 250 g/ha ([2]; Phalaris minor, post-emergence, 360 h, Postemergence, 250 g ai/ha, scale 0 to 100 (0 no effect, 100 complete control), read-out: Plant response rating, Canarygrass): 90% | Chickweed plant response rating (0 to 100 scale) [3, 13]: 98 | pest or weed control at 31 g/ha ([3]; Stellaria media, post-emergence, 360 h, 31 g ai/ha, postemergence, scale 0 to 100, 0 is no effect, 100 is complete control, read-out: Plant response rating, Chickweed): 98% | pest or weed control at 125 g/ha ([3]; Stellaria media, post-emergence, 360 h, Postemergence, 125 g ai/ha, scale 0 to 100 (0 no effect, 100 complete control), read-out: Plant response rating, Chickweed): 100% | pest or weed control at 250 g/ha ([3]; Stellaria media, post-emergence, 360 h, Postemergence, 250 g ai/ha, scale 0 to 100 (0 no effect, 100 complete control), read-out: Plant response rating, Chickweed): 100% | Barley plant response rating (0 to 100 scale) [4, 13]: 5 | plant injury at 31 g/ha ([4]; Hordeum vulgare, post-emergence, 31 g ai/ha, postemergence, scale 0 to 100, 0 is no effect, 100 is complete control, read-out: Plant response rating, Barley): 0% | plant injury at 125 g/ha ([4]; Hordeum vulgare, post-emergence, Postemergence, 125 g ai/ha, scale 0 to 100 (0 no effect, 100 complete control), read-out: Plant response rating, Barley): 5% | plant injury at 250 g/ha ([4]; Hordeum vulgare, post-emergence, Postemergence, 250 g ai/ha, scale 0 to 100 (0 no effect, 100 complete control), read-out: Plant response rating, Barley): 20% | Plant response rating, Sunflower [5, 14]: 75 | Plant response rating, Sunflower [5, 15]: 80 | Plant response rating, Sunflower [5, 16]: 90 | Sunflower plant response rating ([5]; 250 g ai/ha, 0 to 100 scale): 95 | Morningglory plant response rating (0 to 100 scale) [6, 13]: 100 | pest or weed control at 31 g/ha ([6]; Ipomoea, post-emergence, 31 g ai/ha, postemergence, scale 0 to 100, 0 is no effect, 100 is complete control, read-out: Plant response rating, Morningglory): 98% | pest or weed control at 125 g/ha ([6]; Ipomoea, post-emergence, Postemergence, 125 g ai/ha, scale 0 to 100 (0 no effect, 100 complete control), read-out: Plant response rating, Morningglory): 100% | pest or weed control at 250 g/ha ([6]; Ipomoea, post-emergence, Postemergence, 250 g ai/ha, scale 0 to 100 (0 no effect, 100 complete control), read-out: Plant response rating, Morningglory): 100% | Bermudagrass plant response rating (0 to 100 scale) [7, 13]: 90 | pest or weed control at 31 g/ha ([7]; Cynodon dactylon, post-emergence, postemergence, scale 0 to 100, 0 is no effect, 100 is complete control, read-out: Plant response rating, Bermudagrass): 80% | pest or weed control at 125 g/ha ([7]; Cynodon dactylon, post-emergence, Postemergence, scale 0 to 100 (0 no effect, 100 complete control), read-out: Plant response rating, Bermudagrass): 95% | pest or weed control at 250 g/ha ([7]; Cynodon dactylon, post-emergence, Postemergence, 250 g ai/ha, scale 0 to 100 (0 no effect, 100 complete control), read-out: Plant response rating, Bermudagrass): 95% | pest or weed control at 31 g/ha ([7]; Cynodon dactylon, pre-emergence, Preemergence, scale 0 to 100 (0 no effect, 100 complete control), read-out: Plant response rating, Bermudagrass): 95% | pest or weed control at 62 g/ha ([7]; Cynodon dactylon, pre-emergence, Preemergence, 62 g ai/ha, scale 0 to 100, 0 no effect, 100 complete control, read-out: Plant response rating, Bermudagrass): 95% | pest or weed control at 125 g/ha ([7]; Cynodon dactylon, pre-emergence, Preemergence, scale 0 to 100, 0 no effect, 100 complete control, read-out: Plant response rating, Bermudagrass): 100% | Bermudagrass plant response rating ([7]; Preemergence, 250 g ai/ha, 0 to 100 scale, 0 no effect, 100 complete control): 100 | Plant response rating, Galium [8, 14]: 50 | Plant response rating, Galium [8, 15]: 70 | Plant response rating, Galium [8, 16]: 85 | Galium plant response rating ([8]; 250 g ai/ha, 0 to 100 scale): 95 | Plant response rating, Nightshade [9, 14]: 98 | Plant response rating, Nightshade [9, 15]: 98 | Plant response rating, Nightshade [9, 16]: 100 | Nightshade plant response rating ([9]; 250 g ai/ha, 0 to 100 scale): 100 | pest or weed control at 250 g/ha ([10]; 250 g ai/ha, flooded paddy test, visual rating on 0 to 100 scale (0 no effect, 100 complete control) after 13 to 15 days, read-out: Plant response rating, Flood, Barnyardgrass): 15% | pest or weed control at 62 g/ha ([10]; Flood (flooded paddy test), 62 g ai/ha, scale of 0 to 100 where 0 is no effect and 100 is complete control, 13 to 15 days, read-out: Plant response rating, Barnyardgrass): 10% | plant injury at 250 g/ha (rice (Oryza sativa); 250 g ai/ha, flooded paddy test, visual rating on 0 to 100 scale (0 no effect, 100 complete control) after 13 to 15 days, read-out: Plant response rating, Flood, Rice): 0% | plant injury at 62 g/ha (rice (Oryza sativa); Flood (flooded paddy test), 62 g ai/ha, scale of 0 to 100 where 0 is no effect and 100 is complete control, 13 to 15 days, read-out: Plant response rating, Rice): 0% | pest or weed control at 250 g/ha ([11]; 250 g ai/ha, flooded paddy test, visual rating on 0 to 100 scale (0 no effect, 100 complete control) after 13 to 15 days, read-out: Plant response rating, Flood, Ducksalad): 70% | pest or weed control at 62 g/ha ([11]; Flood (flooded paddy test), 62 g ai/ha, scale of 0 to 100 where 0 is no effect and 100 is complete control, 13 to 15 days, read-out: Plant response rating, Ducksalad): 25% | pest or weed control at 250 g/ha ([12]; 250 g ai/ha, flooded paddy test, visual rating on 0 to 100 scale (0 no effect, 100 complete control) after 13 to 15 days, read-out: Plant response rating, Flood, Sedge, Umbrella): 70% | pest or weed control at 62 g/ha ([12]; Flood (flooded paddy test), 62 g ai/ha, scale of 0 to 100 where 0 is no effect and 100 is complete control, 13 to 15 days, read-out: Plant response rating, Sedge, Umbrella): 40%
